One test deals with Th17 cells. The experiment in a line: Th17 assay (IL-17 in supernatants of differentiating human naive CD4+ T cells, ELISA). The note with it: 168 h, Th17 differentiation for seven days with test compound, IL-17 levels in supernatants by ELISA. Type of test: cell-based. Here is the method: Th17 Assay (Another Suitable Assay)
The following modifications were made to the manufacturer's protocol: 1) Incubation with Biotin-Antibody Cocktail and Anti-Biotin MicroBeads was prolonged to 30 minutes, and 2) Cells were washed with 40 mL of Miltenyi buffer. Differentiation of Th17 cells in anti-CD3 (BD Pharmingen, 5 μg/ml) coated 96-well plates (400,000 cells/well, 160 μl RPMI1640+10% Fetal Bovine Serum) containing 5 μg/ml anti-CD28 (BD Pharmingen), 10 ng/ml IL-2 (R&D Systems), 2.5 ng/ml TGFβ-1 (R&D Systems), 20 ng/ml IL-1β (R&D Systems), 20 ng/ml IL-6 (R&D Systems), 30 ng/ml IL-23 (R&D Systems), 2.5 μg/ml anti-IL-4 (R&D Systems) and 1 μg/ml anti-IFNγ (R&D Systems) and with test compound during the entire differentiation (or vehicle, 0.1% DMSO for control). Test compounds were tested in triplicates, diluted 1000-fold in medium (final DMSO concentration is 0.1%). Incubated for seven days at 37° C., 5% CO2, 95% humidity, and 2-fluoro-4′-[[4-(4-pyridinylmethyl)-1-piperazinyl]methyl]-α,α-bis(trifluoromethyl)-[1,1′-biphenyl]-4-methanol (SR2211 Calbiochem, Cat. No. 557353) was used as positive control. As negative control, cells were differentiated into Th0 using 5 μg/ml anti-CD28 (BD Pharmingen), 10 ng/ml IL-2 (R&D Systems), 2 μg/ml anti-IL4 (R&D Systems) and 2 μg/ml anti-IFNγ (R&D Systems) are negative control. IL-17 levels in supernatants were measured with ELISA (R&D Systems).
For orientation: An ELISA detects its analyte on a solid surface through an enzyme-linked reagent.

For the next test, the target named is T1, RORγ (Homo sapiens, UniProt P51449).
T1 construct: Gal4 (galactose-responsive transcription factor); expressed in transfected cells; host or cells: HEK293
T1 sequence (P51449 269-508 limits assumed): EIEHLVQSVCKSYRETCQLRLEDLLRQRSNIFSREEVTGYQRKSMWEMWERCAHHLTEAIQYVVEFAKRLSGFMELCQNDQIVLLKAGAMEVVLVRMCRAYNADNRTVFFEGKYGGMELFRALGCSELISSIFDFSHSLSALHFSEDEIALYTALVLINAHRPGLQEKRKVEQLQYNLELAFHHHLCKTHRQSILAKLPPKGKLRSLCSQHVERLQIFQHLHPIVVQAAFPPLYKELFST
The experiment in a line: RORγ Reporter Assay (Gal4). It counts as cell-based. Here is the method: RORγ Reporter Assay (Gal4)
The HEK293 cell line is co-transfected transiently with two plasmids, one with the RORγ ligand-binding domain fused to galactose-responsive transcription factor (Gal4), and the other with the luciferase reporter gene and Gal binding sites (UAS). This construction allows to determine the RORγ activity in a cellular system through the measurement of luminescence.
A suspension of RORγ reporter cells was dispensed into plates and cultured 2 h at 37° C. and 5% CO2. Media formulation consisted in DMEM/F-12 medium (Gibco) supplemented with 10% heat inactivated FBS (Sigma-Aldrich), non-essential aminoacids (Sigma-Aldrich), 2 mM Glutamax (Gibco) and 100 U/mF penicillin (Sigma-Aldrich). Dose-response curves with compounds were prepared in 100% DMSO and further diluted […] in culture medium. Compound solutions were added to the plate containing cells (final DMSO concentration of 0.1%) and incubated for 24 h at 37° C. and 5% CO2. Luciferase detection reagent was added to each well, and relative light units […] were quantified from each assay well using a plate reading luminometer.
Values of average RFU±S.D. were computed for all treatment sets, followed by the calculations of percent-reduction of RORγ activity in response to respective test compound. The following formula was used: activity=100*[1−[x test compound/average vehicle]where the theoretical minimum reduction (0% reduction).
(A reporter such as luciferase makes a cellular process visible.)

Test [1] deals with Collagen-induced arthritis. The experiment in a line: Collagen-Induced Arthritis (CIA) study. The note with it: 10 mpk po bid, male DBA/1J mice. It counts as in vivo. Here is the method:
Collagen-Induced Arthritis (CIA) Study Collagen-induced arthritis is an animal model of rheumatoid arthritis used to evaluate the efficacy of test compounds. CIA was induced at Washington Biotechnology Inc. (Baltimore) in male DBA/1J mice (Jackson Laboratories) by subcutaneous injection at the base of the tail with 50 μl of a bovine collagen/complete Freund's adjuvant emulsion. After 21 days, the mice were further boosted by a further subcutaneous injection of 50 μl of a collagen/incomplete Freund's adjuvant emulsion. For treatment, compound or vehicle (2% DMSO, 10% HP—β-CD in MilliQ water) was given orally twice daily at various doses selected from 3, 10, 30 mg/kg, beginning at the day of CIA induction (Prophylactic setting), or after disease initiation (at day 27, therapeutic setting). Treatment lasted until day 41, and the animals were scored three times weekly. Each paw was scored and the sum of all four scores was recorded as the Arthritic Index (AI). The maximum possible AI was 16. 0=no visible effects of arthritis; 1=edema and/or erythema of one digit; 2=edema and/or erythema of 2 joints; 3=edema and/or erythema of more than 2 joints; 4=severe arthritis of the entire paw and digits including limb deformation and ankylosis of the joint. […] At 10 mpk po bid, H6-13-2 Arthritis Index (AI) decreased with 83% of the effect of the mouse aIL-17A antibody. […]

Where [2] appears, read: HEK293 co-transfected with RORγ LBD-Gal4 and luciferase reporter, 24 h incubation, absolute IC50, read-out: IC50.

Each structure is given as a SMILES string. pIC50: −log10 of the molar value. Like-named read-outs stand apart in the source and are kept apart here.

As a reminder, the pIC50 is the negative decadic logarithm of the IC50, by convention in mol/L.

As to `NC(=O)CN1CC[C@H](CNc2ncnc(N3CCOC[C@@H]3c3ccc(C(F)(F)F)cn3)c2F)[C@@H](F)C1` (single isomer, unassigned) [Example H6-13-2, 2-((3R*,4R*)-3-fluoro-4-(((5-fluoro-6-((S)-3-(5-(trifluoromethyl)pyridin-2-yl)morpholino)pyrimidin-4-yl)amino)methyl)piperidin-1-yl)acetamide], the negative-log IC50 (pIC50) in the test with Th17 cells was 7.03; on RORγ (setting [2]), 7.27. Also, the “Arthritis Index (AI) decrease as % of the effect of the mouse aIL-17A antibody” value in test [1] was determined as 83%. Turning to `NC(=O)CN1CCC(CNc2ncnc(N3CCOC[C@@H]3c3ccc(C(F)(F)F)cc3)c2F)CC1` [Example H6-5, (S)-2-(4-(((5-fluoro-6-(3-(4-(trifluoromethyl)phenyl)morpholino)pyrimidin-4-yl)amino)methyl)piperidin-1-yl)acetamide], the negative-log IC50 (pIC50) in the test with Th17 cells is 6.79; on RORγ (setting [2]), 7.15. As to `NC(=O)CN1CCC(CNc2ncnc(N3CCOC[C@@H]3c3ccc(C(F)(F)F)cn3)c2F)C(F)(F)C1` (single isomer, unassigned) [Example H6-11-2, 2-((R*)-3,3-difluoro-4-(((5-fluoro-6-((S)-3-(5-(trifluoromethyl)pyridin-2-yl)morpholino)pyrimidin-4-yl)amino)methyl)piperidin-1-yl)acetamide], the results for the negative-log IC50 (pIC50) in the test on Th17 cells and at RORγ (setting [2]) were 7.09 and 7.18, respectively. Also, the “Arthritis Index (AI) decrease as % of the effect of the mouse aIL-17A antibody” value in test [1] was determined as 61%.

Turning to `NC(=O)CN1CCC(CNc2ncnc(N3CCCC3c3ccc(C(F)(F)F)cc3)c2F)CC1` (stereo not drawn) [Example H6-25, 2-(4-(((5-fluoro-6-(2-(4-(trifluoromethyl)phenyl)pyrrolidin-1-yl)pyrimidin-4-yl)amino)methyl)piperidin-1-yl)acetamide], the negative-log IC50 (pIC50) at RORγ (setting [2]) is 7.06. With `NC(=O)CN1CCC(CNc2ncnc(N3CC(F)(F)C[C@@H]3c3ccc(C(F)(F)F)cn3)c2F)C(F)(F)C1` (single isomer, unassigned) [Example H6-19-2, 2-((R*)-4-(((6-((R)-4,4-difluoro-2-(5-(trifluoromethyl)pyridin-2-yl)pyrrolidin-1-yl)-5-fluoropyrimidin-4-yl)amino)methyl)-3,3-difluoropiperidin-1-yl)acetamide], at RORγ (setting [2]), the negative-log IC50 (pIC50) was 7.34.

Regarding `NC(=O)Cc1ccc(CNc2ncnc(N3CCOC[C@@H]3c3ccc(OC(F)(F)F)cc3)c2F)cc1` [Example 230, reference compound], on RORγ (comparison compounds from WO2016020295, Tables 5 and 6, read-out: Gal4 assay IC50), the pIC50 was above 7.00. Take `NC(=O)CN1CCC(CNc2ncnc(N3CCOC[C@@H]3c3ccc(C(F)(F)F)cc3)c2F)C(F)(F)C1` (single isomer, unassigned) [Example H6-9-2, 2-((R*)-3,3-difluoro-4-(((5-fluoro-6-((S)-3-(4-(trifluoromethyl)phenyl)morpholino)pyrimidin-4-yl)amino)methyl)piperidin-1-yl)acetamide]: the negative logarithm of the IC50 (pIC50) at RORγ (setting [2]) is 7.74. `NC(=O)CN1CCC(F)(CNc2ncnc(N3CCOC[C@@H]3c3ccc(OC(F)(F)F)cc3)c2F)CC1` [Example H6-6, (S)-2-(4-fluoro-4-(((5-fluoro-6-(3-(4-(trifluoromethoxy)phenyl)morpholino)pyrimidin-4-yl)amino)methyl)piperidin-1-yl)acetamide]: the negative logarithm of the IC50 (pIC50) on RORγ (setting [2]) was 7.29. Same read-out and setting: next, `NC(=O)CN1CC[C@H](CNc2ncnc(N3CC(F)(F)C[C@@H]3c3ccc(C(F)(F)F)cn3)c2F)[C@@H](O)C1` (mixture of isomers) [Example H6-20, 2-((3RS,4RS)-4-(((6-((R)-4,4-difluoro-2-(5-(trifluoromethyl)pyridin-2-yl)pyrrolidin-1-yl)-5-fluoropyrimidin-4-yl)amino)methyl)-3-hydroxypiperidin-1-yl)acetamide]: 6.31; `NC(=O)CN1CCC(CNc2ncnc(N3CC(F)(F)C[C@@H]3c3ccc(C(F)(F)F)cc3)c2F)C(F)(F)C1` (single isomer, unassigned) [Example H6-15-1, 2-((R*)-4-(((6-((R)-4,4-difluoro-2-(4-(trifluoromethyl)phenyl)pyrrolidin-1-yl)-5-fluoropyrimidin-4-yl)amino)methyl)-3,3-difluoropiperidin-1-yl)acetamide]: 8.05; `NC(=O)CN1CCC(CNc2ncnc(N3CCOC[C@@H]3c3ccc(C(F)(F)F)cc3)c2F)C(F)(F)C1` (single isomer, unassigned) [Example H6-9-1, 2-((R*)-3,3-difluoro-4-(((5-fluoro-6-((S)-3-(4-(trifluoromethyl)phenyl)morpholino)pyrimidin-4-yl)amino)methyl)piperidin-1-yl)acetamide]: 7.00.

In the case of `NC(=O)CN1CC[C@H](CNc2ncnc(N3CCOC[C@@H]3c3ccc(C(F)(F)F)cn3)c2F)[C@H](F)C1` (single isomer, unassigned) [Example H6-12-1, 2-((3R*,4S*)-3-fluoro-4-(((5-fluoro-6-((S)-3-(5-(trifluoromethyl)pyridin-2-yl)morpholino)pyrimidin-4-yl)amino)methyl)piperidin-1-yl)acetamide], the pIC50 at RORγ (setting [2]) was 6.26. As for `CC(C)(C(N)=O)N1CCC(CNc2ncnc(N3CCOC[C@@H]3c3ccc(C(F)(F)F)cn3)c2F)CC1` [Example H6-3, (S)-2-(4-(((5-fluoro-6-(3-(5-(trifluoromethyl)pyridin-2-yl)morpholino)pyrimidin-4-yl)amino)methyl)piperidin-1-yl)-2-methylpropanamide], the negative logarithm of the IC50 (pIC50) at RORγ (setting [2]) is 6.55.

Values taken from patent US11447479B2, “Compounds active towards nuclear receptors” (NUEVOLUTION A/S, priority 2019, dated 2022).
